Laboratory results: US9493420B2, “Quinoline derivatives and uses thereof” (Portland State University, priority 2005, dated 2016)
Like-named read-outs stand apart in the source and are kept apart here. Each block holds one compound with its values, some of them ahead of it.

Experiments:
P. falciparum strain D6 = conditions: cited from earlier work; note: key: S = sensitive; R = resistant; S/R = intermediate level of resistance
[1] = pH 5.7; Dorn et al., Xu et al.; cited from earlier work
[2] = test system: P. falciparum strain TM91C235; conditions: cited from earlier work; note: key: S = sensitive; R = resistant; S/R = intermediate level of resistance
P. falciparum strain W2 = conditions: cited from earlier work; note: key: S = sensitive; R = resistant; S/R = intermediate level of resistance
[3] = test system: P. falciparum strain FCR3; conditions: cited from earlier work; note: key: S = sensitive; R = resistant; S/R = intermediate level of resistance
[4] = test system: Dd2 (CQ^R) P. falciparum strain; test: In vitro fluorescence (Sybr Green I) growth inhibition assay, Dd2 strain; type: cell-based; conditions: Plasmodium falciparum
Source text: (§1) One exemplary method for measuring inhibitory effects of RCQ compound in vitro has been reported by Smilkstein et al. (Antimicrob. Agents Chemother., 48(5):1803-1806, 2004). This method employs fluorescent detection of the level of parasitemia in cultured red blood cells and can be automated for high-throughput screening of antimalarial RCQs. This exemplary method allows the inhibitory agent (such as a RCQ) to be in contact with the parasite for an entire developmental cycle without purine starvation, which is in contrast to the traditional ^3H-hypoxanthine method (Desjardins et al., Antimicrob. Agents Chemother., 16(6):710-718, 1979). Briefly, to perform the Smilkstein et al. method, an initial parasitemia of approximately 0.2% is attained by adding uninfected red blood cells (RBCs) to a stock culture of Plasmodium sp.-infected RBCs. […] After a period of incubation (such as about 72 hours), a sufficient amount (e.g., 100 μL) of a fluorescent DNA binding dye-detergent mixture (e.g., Sybr Green I dye-detergent mixture) to lyse cells and bind to DNA is added to the reactions. Because uninfected RBCs have no DNA, only parasite DNA (in infected RBCs) is available for binding to the fluorescent dye (e.g., Sybr Green I). Samples are then incubated in the dark for a period of time (e.g., one hour), followed by measurement of levels of fluorescence. For Sybr Green I, excitation and emission wavelength are 485 and 530 nm, respectively. Fluorescence readings, which represent the amount of parasite DNA in the sample, can be plotted against the Log [drug] and fit to a curve by nonlinear regression to obtain the IC50 value for the tested compound.
(§2) An in vitro fluorescence assay for determining IC50 of antimalarial drugs was performed as previously described by Smilkstein et al. (Antimicrob. Agents Chemother., 48(5):1803-1806, 2004). This relatively low-cost procedure can be automated for high-throughput screening of the antimalarial activities of RCQs described herein. Advantageous, this method also allows the tested agent (e.g, a RCQ) to be in contact with the parasite for an entire developmental cycle without purine starvation (which occurs with the commonly used ^3H-hypoxanthine method; see, e.g., Desjardins et al., Antimicrob. Agents Chemother., 16, (6):[…], 1979).
(§3) Briefly, an initial parasitemia of approximately 0.2% was attained by addition of uninfected red blood cells to a stock culture of cells infected with Dd2 (CQ^R) or D6 (CQ^S) P. falciparum strains. A 10 mM RCQ_02 solution (in DMSO) was prepared. RCQ_02 (at a final concentration from 10^−11 to 10^−4 M) and infected red blood cells (at a final concentration of 2% (v/v)) were mixed in 100 μL samples in individual wells of a 96-well plate. Each sample was prepared in triplicate. A triplicate set of reactions containing CQ (instead of RCQ_02) was included as a control. After a 72 hour incubation period, Sybr Green I dye-detergent mixture (100 μL) was added to each reaction. The samples were further incubated for an hour in the dark, and then placed in a 96-well fluorescence plate reader (Gemini-EM, […]) and analyzed with excitation and emission wavelength bands at 485 and 530 nm, respectively. Fluorescence readings were plotted against the Log [drug], and curve fitting performed by nonlinear regression to find the IC50 value.

P. falciparum strain Dd2 = conditions: cited from earlier work; note: key: S = sensitive; R = resistant; S/R = intermediate level of resistance
P. falciparum strain 3D7 = conditions: cited from earlier work; note: key: S = sensitive; R = resistant; S/R = intermediate level of resistance
[5] = test system: D6 (CQ^S) P. falciparum strain; test: In vitro fluorescence (Sybr Green I) growth inhibition assay, D6 strain; type: cell-based; conditions: Plasmodium falciparum
Source text: as §1, §2, §3

[6] = test system: W2 (CQ^R) P. falciparum strain; test: In vitro fluorescence (Sybr Green I) growth inhibition assay, W2 strain; type: cell-based; conditions: Plasmodium falciparum
[7] = test system: mitogen-induced murine spleen lymphocytes; type: cell-based; conditions: LC50; mouse spleen lymphocytes; 72 hours + 24 hours resazurin
Procedure: Mouse spleen lymphocytes were isolated from C57B1/6J mice by teasing tissues on a metallic sieve screen. […] Two hundred (200) μl isolated cells were then seeded in separate wells of a 96-well flat-bottom tissue culture plate at a density of 2×10^5 cells per well. […] After 72 hours incubation in a humidified atmosphere at 37° C. and 5% CO2, a solution of resazurin PBS was added to a final concentration 10 μM, and the plates were returned to the incubator for another 24 hours. Resazurin is a substrate which changes color in response to metabolic activity (such as, living cells). […] LC50 values were determined from plots of florescence versus drug concentration using non-linear regression by Prism software.

[8] = Heme binding by UV-VIS spectrophotometric titration (association constant); conditions: similar methodologies as for RCQ_02
Source text: Optionally, heme binding of RCQ compounds can be determined by any method known in the art, including, for example, spectrophotometric methods, like UV-VIS spectroscopy or NMR spectroscopy. Methods of measuring heme binding to a variety of molecules using the UV-VIS spectrum have been described (see, e.g., Xu et al., J. Inorg. Biochem., 86 (2-3):617-625, 2001; Xu et al., Antimicrob. Agents Chemother., 46(1):144-150, 2002). Generally, a heme-binding compound (such as a disclosed RCQ) is mixed in increasing concentration with heme (or a heme model compound, such as porphyrin or metalloporphyrin) and the absorbance spectrum is measured from the ultraviolet region well into the visible region (from about 300 nm to about 750 nm). This spectral range includes the so-called Soret and Q-band regions that arise from porphyrin or metalloporphyrin absorbance. Upon interaction between a heme-binding compound and heme (or a heme model compound, such as porphyrin or metalloporphyrin), decreased absorbance in the Soret region is observed. […]
In particular examples, the formation of heme-RCQ complexes can be determined by UV-VIS spectrophotometric titration, using a variety of commercially available spectrophotometers (such as a Varian-Cary 3E spectrophotometer). […] Optionally, pH can be monitored throughout the procedure to ensure that it remains unchanged. […]

Compound: CCN(CC)CCCC(C)Nc1ccnc2cc(Cl)ccc12 (centres unmarked) [CQ, chloroquine]
Drug susceptibility, strain D6 (P. falciparum strain D6): S | association constant reported for CQ.heme2 [1]: ~400000 M⁻¹ | Drug susceptibility, strain TM91C235 [2]: R | Drug susceptibility, strain W2 (P. falciparum strain W2): R | Drug susceptibility, strain FCR3 [3]: R | IC50 ([4]; DD2, 72 h): 102 nM | IC50 ([4]; DD2, read-out: IC50 (nM) Dd2 (CQ^R)): 102 nM | Drug susceptibility, strain Dd2 (P. falciparum strain Dd2): R | Drug susceptibility, strain 3D7 (P. falciparum strain 3D7): S | IC50 ([5]; D6, 72 h): 6.5 nM | IC50 ([5]; D6, read-out: IC50 (nM) D6 (CQ^S)): 6.9 nM | IC50 ([6]; W2, read-out: IC50 (nM) W2 (CQ^R)): 250 nM

heme association constant [8]: 500000 M⁻¹
Compound: Clc1ccc2c(NCCN3CCN(C(c4ccccc4)c4ccccc4)CC3)ccnc2c1 [RCQ_31]
Cytotoxicity [7]: 1900 nM | IC50 ([4]; DD2, Table 13, growth inhibition, read-out: IC50 (nM) Dd2 (CQ^R)): 3.6 nM | IC50 ([5]; D6, Table 13, growth inhibition, read-out: IC50 (nM) D6 (CQ^S)): 1 nM | IC50 ([6]; W2, Table 13, growth inhibition, read-out: IC50 (nM) W2 (CQ^R)): 4.3 nM
